Values joined by “and” are separate entries in the source; they are usually repeats but may differ in a detail not shown here. Equal values may be shown once. Read-outs that look alike come from different tables or passages of the source.
Columns and labels:
A549 (Lung) = assay: Antiproliferative assay, A549; assay type: cell-based, human; conditions: A549, 5 d exposure, mean ± SD, n = 3 (epothilone B n = 2); read-out: IC50 for growth inhibition
Description: Antiproliferative assays are performed as previously described (Int. J. Cancer 43, 851-6 (1989)). Briefly, cells are seeded at 1.5×10^3 cells/well into 96-well microtiter plates and incubated overnight. Compounds are added in serial dilutions on day 1. The plates are then incubated for an additional 2 to 5 days, allowing for at least one cell doubling (cell line dependent), after which the cells are fixed with 3.3% v/v glutaraldehyde, washed with water and stained with 0.05% w/v methylene blue. After washing, the dye is eluted with 3% v/v HCl and the optical density measured at 665 nm with a SpectraMax 340 (Bucherer, Basel, Switzerland). IC50 values are determined by a computerized system (SoftPro, Bucherer, Basel, Switzerland) using the formula (OD test−OD start)/(OD control−OD start)×100. IC50 is defined as the drug concentration which leads to 50% of cells per well compared to control cultures (100%) at the end of incubation period.

[1] = tested on: human KB-8511 epidermoid carcinoma; assay type: in vivo, female BALB/c nude mice; conditions: for % Body Weight Change / D Body Weight / D Tumor Volume (mm^3): mean ± SEM
Description: The human epidermal (mouth) carcinoma cell line KB-8511 (a P-gp over-expressing cell line derived from the epidermoid (mouth) KB-31 carcinoma cell line) is obtained from Dr. R. M. Baker, Roswell Park Memorial Institute (Buffalo, N.Y., USA) (for description see Akiyama et al., Somat. Cell. Mol. Genetics 11, 117-126 (1985) and Fojo A., et al., Cancer Res. 45, 3002-3007 (1985)) and is cultured as previously described (Meyer, T., et al., Int. J. Cancer 43 851-856 (1989)).
Female or male BALB/c nu/nu (nude) mice are kept under sterile conditions (10 to 12 mice per Type III cage) with free access to food and water. Mice weigh between 20 and 25 grams at the time of tumor implantation. Tumors are established by subcutaneous injection of cells (minimum 2×10^6 cells in 100 μl PBS or medium) in carrier mice (4-8 mice per cell line). The resulting tumors are serially passaged for a minimum of three consecutive transplantations prior to start of treatment. Tumor fragments (approx. 25 mg) are implanted s.c. into the left flank of animals with a 13-gauge trocar needle while the mice are exposed to Forene (Abbott, Switzerland) anesthesia.
Tumor growth and body weights are monitored once or twice weekly. All treatments are administered intravenously (i.v.) and are initiated when a mean tumor volume of approximately 100 to 250 mm^3 is attained, depending upon the tumor type. Tumor volumes are determined using the formula […] (see Cancer Chemother. Pharmacol. 24:148-154, [1989]). Treatments with epothilone B vary the dose and the frequency of administration. Comparator agents are administered according to previously determined optimal treatment regimens. In addition to presenting changes in tumor volumes over the course of treatment, antitumor activity is expressed as T/C % (mean increase of tumor volumes of treated animals divided by the mean increase of tumor volumes of control animals multiplied by 100). Tumor. regression (%) represents the smallest mean tumor volume compared to the mean tumor volume at the start of treatment, according to the formula Regression (%)=(1−Vend/Vstart)×100(Vend=final mean tumor volume, Vstart=mean tumor volume at the start of treatment. Any animals in which the tumor has reached a size exceeding approximately 1.5 to 2.5 cm^3 are sacrificed. Details can be found below.

C/C(=C\c1csc(C)n1)[C@@H]1C[C@@H]2O[C@]2(C)CCC[C@H](C)[C@H](O)[C@@H](C)C(=O)C(C)(C)[C@@H](O)CC(=O)O1 [epothilone B]
IC50 (A549 (Lung)): 0.19 ± 0.12 nM
Regression ([1]; 1 mg/kg, i.v. once per week): none
Survival (No. alive/total) ([1]; 1 mg/kg, i.v. once per week): 8/8
T/C ([1]; 1 mg/kg, i.v. once per week, final): 81%
% Body Weight Change ([1]; 1 mg/kg, i.v. once per week): 12 ± 1%
D Body Weight ([1]; 1 mg/kg, i.v. once per week): 2.6 ± 0.3 g
D Tumor Volume (mm^3) ([1]; 1 mg/kg, i.v. once per week): 1620 ± 290 mm^3
Survival (No. alive/total) ([1]; 2 mg/kg, i.v. once per week): 8/8
T/C ([1]; 2 mg/kg, i.v. once per week, final): 14%
% Body Weight Change ([1]; 2 mg/kg, i.v. once per week): 5 ± 2%
D Body Weight ([1]; 2 mg/kg, i.v. once per week): 1.1 ± 0.4 g
D Tumor Volume (mm^3) ([1]; 2 mg/kg, i.v. once per week): 289 ± 204 mm^3
mice with undetectable tumors at the end of the experiment ([1]; 2 mg/kg/week): ⅛
Survival (No. alive/total) ([1]; 4 mg/kg, i.v. once on day 13): 8/8
T/C ([1]; 4 mg/kg, i.v. once on day 13, final): 24%
% Body Weight Change ([1]; 4 mg/kg, i.v. once on day 13): 3 ± 2%
D Body Weight ([1]; 4 mg/kg, i.v. once on day 13): 0.6 ± 0.6 g
D Tumor Volume (mm^3) ([1]; 4 mg/kg, i.v. once on day 13): 484 ± 103 mm^3
Regression ([1]; 4 mg/kg, i.v. once on day 13, transient, day 25 post transplantation): −51%
Survival (No. alive/total) ([1]; 4 mg/kg, i.v. once per week): 8/8
T/C ([1]; 4 mg/kg, i.v. once per week (days 13, 21 and 27)): Regression
% Body Weight Change ([1]; 4 mg/kg, i.v. once per week): −5±7% and −5 ± 3%
D Body Weight ([1]; 4 mg/kg, i.v. once per week): -1.1 ± 0.4 g
D Tumor Volume (mm^3) ([1]; 4 mg/kg, i.v. once per week): −107 ± 14 mm^3
mice with undetectable tumors at the end of the experiment ([1]; 4 mg/kg/week): ⅝

— patent US7875601B2, “Cancer treatment with epothilones” (Novartis AG, priority 1998, dated 2011)
